In ChEMBL document CHEMBL2380199, “Ostreol A: a new cytotoxic compound isolated from the epiphytic dinoflagellate Ostreopsis cf. ovata from the coastal waters of Jeju Island, Korea” (Bioorg Med Chem Lett, 2013):
Values after ≈ are worked out from the molar mass of the structure shown.

Experiment: Toxicity in Artemia salina after 24 hrs
Format: organism-based
Settings: in vivo, read-out: LD50

SMILES | LC50 at 24 h [µg/mL]
CC1=C(O)[C@@](O)([C@@H]2C[C@H]3OC(=O)[C@H](C)[C@@H]4CCC[C@@]5(CC[C@H](O5)[C@H](O)[C@@]5(C)CC(=O)[C@H](O5)[C@H]5C[C@]6(C)CC[C@](O5)(O6)[C@H]5CC[C@](C)(C[C@@H](C)/C=C(C)/C=C/[C@H]3O2)O5)O4)OCC1 | 2.5 (≈ 2.92 µM)
C=CCC/C=C/CCCC/C=C/[C@@H](O)[C@H](O)[C@@H]1O[C@@H]([C@H](O)[C@H](O)C(=C)CC[C@@H](O)[C@H]2C[C@@H](O)[C@@H](O)[C@H]([C@@H](O)[C@H](O)/C=C(C)/C=C/CC(O)CC(O)CNC(=O)C(O)C(O)C/C=C\C(O)C(O)/C(C)=C/CCCC(O)/C=C/CC(O)/C=C/CC(O)CN)O2)C[C@@H](O)[C@H]1O (some centres not stated) | 0.9 (≈ 0.685 µM)
